Reference: patent publication US12472193B2, “Methods and compositions for treating and preventing respiratory related diseases and conditions with xylitol-headgroup lipid analogs” (National Jewish Health, priority 2017, dated 2025)
Entries after “also recorded” stand apart in the source; their conditions may differ.

Target: T1, TLR 3 (Homo sapiens, UniProt O15455)
T1 construct: endogenous in cells; host or cells: BEAS2B (ATCC)
T1 sequence (O15455 24-904): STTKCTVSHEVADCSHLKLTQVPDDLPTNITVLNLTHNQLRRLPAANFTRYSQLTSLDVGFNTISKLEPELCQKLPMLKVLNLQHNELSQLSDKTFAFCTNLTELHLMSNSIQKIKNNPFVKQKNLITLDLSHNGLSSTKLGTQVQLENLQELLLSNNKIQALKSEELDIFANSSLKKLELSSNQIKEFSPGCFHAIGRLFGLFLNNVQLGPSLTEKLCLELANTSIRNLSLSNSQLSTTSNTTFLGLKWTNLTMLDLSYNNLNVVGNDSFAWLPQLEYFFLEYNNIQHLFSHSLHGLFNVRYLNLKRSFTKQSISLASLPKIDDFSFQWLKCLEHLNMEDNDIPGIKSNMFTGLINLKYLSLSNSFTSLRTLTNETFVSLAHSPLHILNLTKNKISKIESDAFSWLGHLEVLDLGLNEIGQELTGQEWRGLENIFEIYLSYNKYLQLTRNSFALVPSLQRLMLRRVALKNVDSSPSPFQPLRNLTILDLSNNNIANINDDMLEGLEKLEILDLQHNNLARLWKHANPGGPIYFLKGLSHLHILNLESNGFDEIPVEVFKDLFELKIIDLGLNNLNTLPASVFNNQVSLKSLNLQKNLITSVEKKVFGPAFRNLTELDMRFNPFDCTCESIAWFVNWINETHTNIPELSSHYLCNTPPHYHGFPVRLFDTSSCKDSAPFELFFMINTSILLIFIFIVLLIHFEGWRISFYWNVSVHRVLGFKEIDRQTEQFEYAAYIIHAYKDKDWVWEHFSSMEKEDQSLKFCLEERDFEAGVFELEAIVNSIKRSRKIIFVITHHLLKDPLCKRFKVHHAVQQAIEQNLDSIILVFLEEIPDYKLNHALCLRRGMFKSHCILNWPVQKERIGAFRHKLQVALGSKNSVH
Test: poly I:C-induced IL-8 release by BEAS2B cells (TLR 3 antagonism)
Type: cell-based
Conditions: for antagonism of TLR 3 activation (IL-8 release): poly I:C, 200 μg/ml lipid, 48 hours; for TLR3 antagonist activity: reduction in cytokine secretion vs activating TLR ligand alone; for IL-8 release from BEAS2B cells in the absence of poly I:C: lipid alone
Experimental: Human bronchial epithelial cells, BEAS2B, were obtained from ATCC and maintained in bronchial epithelial cell growth medium (BEGM), supplemented with the BulleKit from Lonza in accordance with protocol (M. H. Hudy, S. et al., “Cigarette smoke modulates rhinovirus-induced airway epithelial cell chemokine production.,” Eur. Respir. J., vol. 35, no. 6, pp. 1256-63, June 2010). Cells were cultured at 37 C with 5% carbon dioxide:95% air atmosphere maintained within the incubator. Experiments were conducted in 48-well plates and cells were seated at a density of 5×10^4 per well. After 24 hours, the BEGM medium was replaced with RPMI-1640 medium and incubated for an additional 24 hours. Liposomes were prepared as described above. Each condition for cell stimulation and antagonism was prepared in RPMI medium in a separate tube and consisted of: control (medium alone), TLR agonist, TLR agonist+lipid, and lipid alone. The cells were incubated in […] medium either with or without agonists and antagonists at 37° C. for 48 hours. Subsequently, media were collected, diluted and an enzyme-linked immunosorbent assay (ELISA) was performed to quantify IL-8 release by cells.
The ability of PX lipids to enter the endosomal compartment and modulate immune signaling was next assessed. The human bronchial epithelial cell line, BEAS2B, expresses TLR 3 in its endosomal compartments and is susceptible to infection by respiratory syncytial virus, making this cell line ideal cell line for this study. BEAS2B cells were stimulated with the TLR 3 agonist, poly I:C, in the presence or absence of phospholipid for 48 hours. After incubation, media was collected and IL-8 was quantified as a consequence of TLR 3 activation, and results are summarized in FIG. 5. […] Results from these experiments indicate that xylitol analogs were able to gain entry into BEAS2B cells and inhibit TLR 3 signaling. […] Thus, DMPX, 16:1 DPPX and 18:2 DLPX act as […]

Compound | antagonism of TLR 3 activation (IL-8 release) | TLR3 antagonist activity | IL-8 release from BEAS2B cells in the absence of poly I:C
CCCCCCCCCCCCCCCCCC(=O)OCC(COP(=O)(O)OCC(O)C(O)C(O)CO)OC(=O)CCCCCCCCCCCCCCCCC (centres unmarked) [DSPX, sn-1-stearoyl, sn-2-stearoyl sn-3 glycerol phosphoxylitol] | suppressed/inhibited activation of TLR3 | + (cutoff being greater than a 50% reduction in cytokine secretion compared to activating TLR ligand alone) | 
CCCCCCCCCCCCCCCC(=O)OCC(COP(=O)(O)OCC(O)C(O)C(O)CO)OC(=O)CCCCCCCCCCCCCCC (centres unmarked) [DPPX, sn-1-palmitoyl, sn-2-palmitoyl sn-3 glycerol phosphoxylitol] | suppressed/inhibited activation of TLR3 | + (cutoff being greater than a 50% reduction in cytokine secretion compared to activating TLR ligand alone) | 
CCCCCCC=CCCCCCCCC(=O)OCC(COP(=O)(O)OCC(O)C(O)C(O)CO)OC(=O)CCCCCCCC=CCCCCCC (mixture of isomers) [16:1 DPPX, sn-1-palmitoleoyl, sn-2-palmitoleoyl sn-3 glycerol phosphoxylitol] | stimulated a robust release of IL-8; also recorded: ineffective antagonists of TLR 3 |  | stimulated a robust release of IL-8
CCCCCCCCCCCCCCOC[C@H](COP(=O)(O)OCC(O)C(O)C(O)CO)OCCCCCCCCCCCCCC (mixture of isomers) [14:0 DEPX, sn-1-O-myristyl, sn-2-O-myristyl sn-3 glycerol phosphoxylitol] | suppressed/inhibited activation of TLR3 | + (cutoff being greater than a 50% reduction in cytokine secretion compared to activating TLR ligand alone) | 
CCCCCCCCC=CCCCCCCCCOCC(COP(=O)(O)OCC(O)C(O)C(O)CO)OCCCCCCCCC=CCCCCCCCC (mixture of isomers) [18:1 DEPX, sn-1-O-octadecenyl, sn-2-O-octadecenyl sn-3 glycerol phosphoxylitol] | suppressed/inhibited activation of TLR3 | + (cutoff being greater than a 50% reduction in cytokine secretion compared to activating TLR ligand alone) | 
CCCCCCCCCCCCCC(=O)OC[C@H](COP(=O)(O)OCC(O)C(O)C(O)CO)OC(=O)CCCCCCCCCCCCC (mixture of isomers) [DMPX, sn-1-myristoyl, sn-2-myristoyl sn-3 glycerol phosphoxylitol] | ineffective antagonists of TLR 3 |  | elicited an inflammatory response
CCCCCC=CCC=CCCCCCCCC(=O)OCC(COP(=O)(O)OCC(O)C(O)C(O)CO)OC(=O)CCCCCCCC=CCC=CCCCCC (mixture of isomers) [18:2 DLPX, sn-1-linoleoyl, sn-2-linoleoyl sn-3 glycerol phosphoxylitol] | ineffective antagonists of TLR 3 |  | elicited an inflammatory response
CCCCCCCC/C=C\CCCCCCCC(=O)O[C@H](COC(=O)CCCCCCCCCCCCCCC)COP(=O)(O)OCC(O)CO (some centres unmarked) [POPG, palmitoyl-oleoyl-phosphatidylglycerol, reference compound] | markedly inhibited |  | 
CCCCCCCC/C=C\CCCCCCCC(=O)O[C@H](COC(=O)CCCCCCCCCCCCCCC)COP(=O)(O)OCC(O)C(O)C(O)CO (some centres unmarked) [POPX, sn-1-palmitoyl, sn-2-oleoyly sn-3 glycerol phosphoxylitol] | suppressed/inhibited activation of TLR3 | + (cutoff being greater than a 50% reduction in cytokine secretion compared to activating TLR ligand alone) | 
CCCCCCCCC=CCCCCCCCC(=O)OCC(COP(=O)(O)OCC(O)C(O)C(O)CO)OC(=O)CCCCCCCC=CCCCCCCCC (mixture of isomers) [DOPX, sn-1-oleoyl, sn-2-oleoyl sn-3 glycerol phosphoxylitol] | suppressed/inhibited activation of TLR3 | + (cutoff being greater than a 50% reduction in cytokine secretion compared to activating TLR ligand alone) | 
CCCCCCCC/C=C\CCCCCCCC(=O)O[C@H](COC(=O)CCCCCCCCCCCCCCC)COP(=O)([O-])OCC[N+](C)(C)C [POPC, 1-palmitoyl-2-oleoyl-sn-glycero-3-phosphocholine, reference compound] | unaffected |  | 
